According to publication PMC2151567 (The Journal of General Physiology, 2006):

Target: mouse BK channel (mSlo) (Mus musculus, UniProt Q08460)
Assay type: cell-based

Chain of mouse BK channel (mSlo) (Q08460 whole entry): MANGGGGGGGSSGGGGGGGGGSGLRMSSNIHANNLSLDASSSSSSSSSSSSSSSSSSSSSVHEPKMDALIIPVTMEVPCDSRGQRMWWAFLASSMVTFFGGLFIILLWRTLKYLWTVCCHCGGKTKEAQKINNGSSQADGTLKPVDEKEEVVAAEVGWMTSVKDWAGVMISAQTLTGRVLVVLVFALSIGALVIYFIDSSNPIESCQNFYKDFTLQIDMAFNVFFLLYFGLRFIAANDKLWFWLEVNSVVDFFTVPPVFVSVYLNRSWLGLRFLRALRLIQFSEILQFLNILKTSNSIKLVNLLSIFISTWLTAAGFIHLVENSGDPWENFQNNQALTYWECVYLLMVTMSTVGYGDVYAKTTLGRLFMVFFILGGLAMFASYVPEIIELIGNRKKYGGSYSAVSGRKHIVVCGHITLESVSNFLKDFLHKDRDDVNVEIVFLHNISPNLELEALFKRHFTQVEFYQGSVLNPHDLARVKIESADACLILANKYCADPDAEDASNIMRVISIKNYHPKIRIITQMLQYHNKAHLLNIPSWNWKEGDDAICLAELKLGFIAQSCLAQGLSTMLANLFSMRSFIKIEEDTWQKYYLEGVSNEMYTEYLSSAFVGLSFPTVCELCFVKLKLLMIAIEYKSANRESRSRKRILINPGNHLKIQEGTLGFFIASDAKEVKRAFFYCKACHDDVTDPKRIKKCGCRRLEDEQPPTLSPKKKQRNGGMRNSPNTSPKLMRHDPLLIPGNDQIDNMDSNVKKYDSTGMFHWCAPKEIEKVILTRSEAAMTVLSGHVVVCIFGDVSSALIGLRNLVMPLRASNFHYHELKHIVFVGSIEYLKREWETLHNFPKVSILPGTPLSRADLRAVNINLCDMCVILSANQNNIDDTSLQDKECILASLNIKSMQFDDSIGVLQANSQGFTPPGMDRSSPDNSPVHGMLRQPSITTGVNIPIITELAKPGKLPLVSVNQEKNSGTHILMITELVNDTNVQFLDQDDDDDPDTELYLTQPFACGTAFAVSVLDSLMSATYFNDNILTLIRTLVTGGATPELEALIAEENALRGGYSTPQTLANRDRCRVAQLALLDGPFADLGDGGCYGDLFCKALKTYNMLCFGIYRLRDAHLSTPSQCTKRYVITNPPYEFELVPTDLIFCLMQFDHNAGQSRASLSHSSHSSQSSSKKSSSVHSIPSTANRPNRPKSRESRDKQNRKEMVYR

Work on `CCCC[N+](CCCC)(CCCC)CCCC` [TBA, tetrabutylammonium] yielded a Kd of 628 µM.
